Test results taken from patent US20230407243A1, “GENETIC PLATFORM TO INVESTIGATE THE FUNCTIONS OF BACTERIAL DRUG EFFLUX PUMPS” (priority 2022, published 2023).
Where two headings read alike, the source gives them in different places.

Assays:
Assay type in all cases: cell-based, Escherichia coli
EKO-35-Pore = test: MIC susceptibility profiling, porinated strain; settings: for MIC: Escherichia coli, technical duplicate
Method: (§1) For genomic integration of the pore, the fhuA ΔC/Δ4L gene and the adjacent gentamicin resistance cassette were amplified using a high-fidelity polymerase and the fhuA_40_Up/gImS_3680_Low primers (Table 4). Integration of the pore gene was performed as described above. The pore gene was introduced into the intergenic region between the glmS and pstS genes, with gene expression under the control of a constitutive promoter (Kearse, M. et al., 2012). Genomic integrations were verified using PCR (Primers: pstS_520_Up/glmS_3680_Low, Table 4). Successful integrations were transformed with pCP20 to remove the gentamicin resistance cassette as previously described. Activity of the pore was confirmed through susceptibility testing with the large antibiotic vancomycin prior to phenotypic profiling and further susceptibility testing.
(§2) Single colonies were used to inoculate 3 mL of LB followed by incubation at 37° C. for 18 h with aeration at 220 rpm. The bacterial cells were harvested by centrifugation and resuspended in phosphate buffered saline (PBS) ([pH 7.4], 137 mM NaCl (Bioshop), 2.7 mM KCl (Bioshop), 10 mM Na2PO4 (Bioshop) and 1.8 mM K2PO4) to an OD600 nm˜1.0, followed by 1/2000 dilution into MHB II.
(§3) To a 384-well microtiter plate (Corning, untreated polystyrene), 500 nL of compound was dispensed, in duplicate, and serially titrated 2-fold using an Echo 550 acoustic liquid dispenser (Labcyte Inc.). […] As a solvent control, 500 nL of DMSO was applied to wells that contained no compound. Using a multichannel pipette, 50 μL of the prepared bacterial inoculum was applied to each well. To enable background correction post-incubation, the OD600 nm was measured (Biotek Synergy Neo2 microplate reader) prior to incubation. The plates were incubated at 37° C. with aeration at 900 rpm for 18 h. The plates were equilibrated to room temperature and the OD600 nm measured using a BioTek Synergy Neo2 microplate reader. Data was analyzed in both Prism (GraphPad, Version 9.2.0) and Microsoft Excel (Version 16.53). Raw data were input into Microsoft Excel and the pre-incubation OD600 nm measurements were subtracted from the post-incubation OD600 nm measurements. These corrected measurements were input into Prism 9 as a grouped analysis. […] All other MIC values were adjusted accordingly and visualized using the single-color scale grouped heat map function. Identification of compound chemical properties was achieved using DataWarrior (Version 5.5.0). Using PubChem, the SMILES chemical notation for each compound was obtained and compiled in Microsoft Excel. The resulting spreadsheet was input into DataWarrior and properties were calculated from the compound chemical structures.

EKO-35 araC::emrKY Pore = test: MIC susceptibility profiling, porinated efflux platform
Method: as §1, §2, §3

[1] = system: EKO-35 araC::acrBD408A Pore; test: as above
Method: as §1, §2, §3

EKO-35 araC::mdtEF Pore = test: as above
Method: as §1, §2, §3

EKO-35 araC::mdtBC Pore = test: as above
Method: as §1, §2, §3

EKO-35 araC::acrB Pore = test: as above; settings: EKO-35 araC::acr-B Pore compared to EKO-35-Pore
Method: as §1, §2, §3

EKO-35 araC::emrAB Pore = test: as above
Method: as §1, §2, §3

EKO-35 araC::acrEF Pore = test: as above
Method: as §1, §2, §3

EKO-35 araC::acrD Pore = test: as above
Method: as §1, §2, §3

EKO-35 araC::mexCD Pore = test: as above
Method: as §1, §2, §3

EKO-35 araC::macAB Pore = test: as above
Method: as §1, §2, §3

EKO-35 araC::mdtBC = test: MIC susceptibility profiling, efflux platform
Method: as §2, §3

EKO-35 araC::acrEF = test: MIC susceptibility profiling, efflux platform
Method: as §2, §3

EKO-35 araC::acrBD408A = test: MIC susceptibility profiling, efflux platform
Method: as §2, §3

E. coli EKO-35 = test: microbe, parasite or virus in culture; settings: for MIC: Escherichia coli, EKO35, technical duplicate
Method: as §2, §3

E. coli ΔtolC = test: microbe, parasite or virus in culture
Method: as §2, §3

[2] = system: wild-type E. coli K-12 str. BW25113; test: microbe, parasite or virus in culture; settings: Escherichia coli, BW25113, technical duplicate
Method: as §2, §3

wild-type (WT) K-12-Pore = test: microbe, parasite or virus in culture; settings: Escherichia coli, technical duplicate
Method: as §1, §2, §3

ΔtolC-Pore = test: microbe, parasite or virus in culture
Method: as §1, §2, §3

**Q.** Which results are given for `CC(=O)O[C@H]1C[C@@]2(C)[C@@H](C[C@@H](O)[C@H]3[C@@]4(C)CC[C@@H](O)[C@@H](C)[C@@H]4CC[C@@]32C)/C1=C(\CCC=C(C)C)C(=O)O` [fusidic acid]?
**A.** Fold changes of MICs (EKO-35-Pore; EKO-35-Pore compared to EKO-35-Pore (reference)): 1 fold; MIC (EKO-35-Pore; Table 10, with pore, read-out: Minimum inhibitory concentration (MIC), Pore EKO-35): 0.391 µg/mL; MIC (EKO-35-Pore; Table 14A, porinated, read-out: Minimum inhibitory concentration, EKO-35-Pore): 0.391 µg/mL; Fold changes of MICs (EKO-35 araC::emrKY Pore; EKO-35 araC::emrKY Pore compared to EKO-35-Pore): 1 fold; MIC (EKO-35 araC::emrKY Pore; Escherichia coli, EKO-35 araC::emrKY Pore, technical duplicate, read-out: Minimum inhibitory concentration): 0.391 µg/mL; Fold changes of MICs ([1]; EKO-35 araC::acrBD408A Pore compared to EKO-35-Pore): 1 fold; MIC ([1]; Escherichia coli, EKO-35 araC::acrBD408A Pore, technical duplicate, read-out: Minimum inhibitory concentration): 0.391 µg/mL; Fold changes of MICs (EKO-35 araC::mdtEF Pore; EKO-35 araC::mdtEF Pore compared to EKO-35-Pore): 8 fold; MIC (EKO-35 araC::mdtEF Pore; Escherichia coli, Table 14A, porinated, technical duplicate, read-out: Minimum inhibitory concentration, EKO-35 araC::mdtEF Pore): 3.12 µg/mL; Fold changes of MICs (EKO-35 araC::mdtBC Pore; EKO-35 araC::mdtBC Pore compared to EKO-35-Pore): 1 fold; MIC (EKO-35 araC::mdtBC Pore; Escherichia coli, EKO-35 araC::mdtBC Pore, technical duplicate, read-out: Minimum inhibitory concentration): 0.391 µg/mL; Fold changes of MICs (EKO-35 araC::acrB Pore): 256 fold; Fold changes of MICs (EKO-35 araC::emrAB Pore; EKO-35 araC::emrAB Pore compared to EKO-35-Pore): 4 fold; efflux pump-mediated resistance vs EKO-35-Pore (EKO-35 araC::emrAB Pore; EmrAB, porinated strain): associated with resistance; MIC (EKO-35 araC::emrAB Pore; Escherichia coli, EKO-35 araC::emrAB Pore, technical duplicate, read-out: Minimum inhibitory concentration): 1.56 µg/mL; Fold changes of MICs (EKO-35 araC::acrEF Pore; EKO-35 araC::acrEF Pore compared to EKO-35-Pore): 32 fold; MIC (EKO-35 araC::acrEF Pore; Escherichia coli, Table 14A, porinated, technical duplicate, read-out: Minimum inhibitory concentration, EKO-35 araC::acrEF Pore): 12.5 µg/mL; Fold changes of MICs (EKO-35 araC::acrD Pore; EKO-35 araC::acrD Pore compared to EKO-35-Pore): 32 fold; MIC (EKO-35 araC::acrD Pore; Escherichia coli, Table 14A, porinated, technical duplicate, read-out: Minimum inhibitory concentration, EKO-35 araC::acrD Pore): 12.5 µg/mL; Fold changes of MICs (EKO-35 araC::mexCD Pore; EKO-35 araC::mexCD Pore compared to EKO-35-Pore): 4 fold; MIC (EKO-35 araC::mexCD Pore; Escherichia coli, EKO-35 araC::mexCD Pore, technical duplicate, read-out: Minimum inhibitory concentration): 1.56 µg/mL; Fold changes of MICs (EKO-35 araC::macAB Pore; EKO-35 araC::macAB Pore compared to EKO-35-Pore): 1 fold; MIC (EKO-35 araC::macAB Pore; Escherichia coli, EKO-35 araC::macAB Pore, technical duplicate, read-out: Minimum inhibitory concentration): 0.391 µg/mL; Fold change of MICs (EKO-35 araC::mdtBC; EKO-35 araC::mdtBC compared to EKO-35): 2 fold; MIC (EKO-35 araC::mdtBC; Escherichia coli, Table 13B, non-porinated, technical duplicate, read-out: Minimum Inhibitory Concentration, EKO-35 araC::mdtBC): 6.25 µg/mL; Fold change of MICs (EKO-35 araC::acrEF; EKO-35 araC::acrEF compared to EKO-35): 16 fold; MIC (EKO-35 araC::acrEF; Escherichia coli, Table 13A, non-porinated, technical duplicate, read-out: Minimum Inhibitory Concentration, EKO-35 araC::acrEF): 50 µg/mL; Fold change of MICs (EKO-35 araC::acrBD408A; EKO-35 araC::acrBD408A compared to EKO-35): 1 fold; MIC (EKO-35 araC::acrBD408A; Escherichia coli, Table 13B, non-porinated, technical duplicate, read-out: Minimum Inhibitory Concentration, EKO-35 araC::acrBD408A): 3.12 µg/mL; Fold change of MICs (E. coli EKO-35; EKO-35 compared to EKO-35 (reference)): 1 fold; MIC (E. coli EKO-35; Table 10, without pore, read-out: Minimum inhibitory concentration (MIC), EKO-35): 3.12 µg/mL; MIC (E. coli EKO-35; Table 13A, non-porinated, read-out: Minimum Inhibitory Concentration, EKO-35): 3.12 µg/mL; MIC (E. coli ΔtolC; Escherichia coli, 18 h, read-out: Minimum Inhibitory Concentration, ΔtolC): 3.12 µg/mL; Minimum inhibitory concentration (MIC), ΔtolC (E. coli ΔtolC; Table 10, without pore, technical duplicate): 3.125 µg/mL; MIC ([2]; Table 10, without pore, read-out: Minimum inhibitory concentration (MIC), K-12): 400 µg/mL; MIC ([2]; Table 13A, non-porinated, read-out: Minimum Inhibitory Concentration, K-12): 400 µg/mL; MIC (wild-type (WT) K-12-Pore; Table 10, with pore, read-out: Minimum inhibitory concentration (MIC), Pore K-12): 100 µg/mL; MIC (wild-type (WT) K-12-Pore; Table 14A, porinated, read-out: Minimum inhibitory concentration, K-12 (WT)-Pore): 100 µg/mL; MIC (ΔtolC-Pore; Escherichia coli, 18 h, read-out: Minimum inhibitory concentration, ΔtolC-Pore): 0.391 µg/mL; Minimum inhibitory concentration (MIC), Pore ΔtolC (ΔtolC-Pore; Table 10, with pore, technical duplicate): 0.391 µg/mL
